Results on ten compounds are retold here after ChEMBL document CHEMBL4814063, “Discovery of Diaminopyrimidine Carboxamide HPK1 Inhibitors as Preclinical Immunotherapy Tool Compounds” (ACS Med Chem Lett, 2021).

Values after ≈ are worked out from the molar mass of the structure shown.

A short description of data set [1]: Apparent permeability in dog MDCK-II cells. Type of data set: ADME, cell-based, Canis lupus familiaris.
Data set [2] in a line: MRT in C57BL/6 mouse at 10 mg/kg, po or 1 mg/kg, iv. It counts as ADME, organism-based. As to conditions: in vivo.
A short description of data set [3]: Clearance in C57BL/6 mouse at 10 mg/kg, po or 1 mg/kg, iv. It counts as ADME, organism-based. As to conditions: in vivo.
Data set [4] in a line: Fraction unbound clearance in C57BL/6 mouse at 10 mg/kg, po or 1 mg/kg, iv. Type of data set: ADME, organism-based. Conditions: in vivo.
Data set [5] can be described thus: Oral bioavailability in C57BL/6 mouse at 10 mg/kg. Type of data set: ADME, organism-based. As to conditions: in vivo.
A short description of data set [6]: MRT in Wistar Han rat at 0.1 mg/kg, iv. It counts as ADME, organism-based. Conditions: in vivo.
Data set [7] in a line: Clearance in Wistar Han rat at 0.1 mg/kg, iv. It counts as ADME, organism-based. Conditions: in vivo.
Data set [8] can be described thus: Unbound clearance in Wistar Han rat at 0.1 mg/kg, iv. It counts as ADME, organism-based. Conditions: in vivo.
A short description of data set [9]: Volume of distribution in C57BL/6 mouse at 10 mg/kg, po or 1 mg/kg, iv. Type of data set: ADME, organism-based. Conditions: in vivo.
A short description of data set [10]: Volume of distribution in Wistar Han rat at 0.1 mg/kg, iv. It counts as ADME, organism-based. As to conditions: in vivo.
Data set [11] can be described thus: Solubility of compound at pH 7. Type of data set: physicochemical. As to conditions: buffer.
Data set [12] in a line: Metabolic stability in rat hepatocytes assessed as intrinsic clearance. It counts as ADME, cell-based, Hepatocyte.
Data set [13] can be described thus: Solubility of compound at pH 2. Type of data set: physicochemical. Conditions: buffer.
Data set [14] has as its system Dendritic cell. The data set is described as follows: […] in human monocyte derived dendritic cell assessed as increase in IL-6 production incubated for 24 hrs by ELISA. Type of data set: functional, cell-based. (An ELISA detects its analyte on a solid surface through an enzyme-linked reagent.)
Data set [15] deals with Dendritic cell. The data set is described as follows: […] in human monocyte derived dendritic cell assessed as increase in TNF-alpha production incubated for 24 hrs by ELISA. Type of data set: functional, cell-based.
The nature of data set [16]: AUC in C57BL/6 mouse at 100 mg/kg, po measured after 8 hrs. It counts as ADME, organism-based. As to conditions: in vivo. The arrangement: route oral, dose 100 mg/kg, time 8 hrs.

For `COc1cc2c(cc1Nc1ncc(C(N)=O)c(Nc3ccccc3[C@H](C)OC)n1)CN(C)CC2`, in [1], the apparent permeability coefficient (Papp) came out at 3.1 ×10⁻⁶ cm/s. Moreover, the MRT in data set [2] stood at 19.8 min; in data set [6], 0.5 h. Moreover, the figures for the clearance in [3] and in [7] were 52 mL/min/kg and 56 mL/min/kg, respectively. Further, the values for the CL free in data set [4] and in data set [8] were 2452 mL/min/kg and 2057 mL/min/kg, respectively. The compound further showed a bioavailability in data set [5] of 9%. For the same compound, the figures for the Vd in data set [9] and in [10] were 1 L/kg and 1.8 L/kg, respectively.
`COc1cc2c(cc1Nc1ncc(C(N)=O)c(Nc3ccccc3Br)n1)CN(C)CC2`: in data set [1], the Papp worked out at 2.12 ×10⁻⁶ cm/s. In [11], this compound displayed a solubility of less than 2 µM. Also, the CLint in [12] amounted to 33 µL/min/1e6 cells.
Turning to `COc1cc2c(cc1Nc1ncc(C)c(Nc3ccccc3)n1)CN(C)CC2`, the solubility in data set [13] turned out to be 179 µM (≈ 67.2 µg/mL); in data set [11], 152 µM (≈ 57.1 µg/mL).
For the compound `COc1cc2c(cc1Nc1ncc(C(N)=O)c(Nc3c(F)cccc3C(F)(F)F)n1)CN(C)CC2`, in data set [1], the Papp came to 2.9 ×10⁻⁶ cm/s. Further, the values for the MRT in [2] and in data set [6] were 28.8 min and 1.3 h, respectively. The clearance was 30 mL/min/kg in [3] and 28 mL/min/kg in data set [7]. The CL free in [4] was 2170 mL/min/kg; in [8], 1529 mL/min/kg. Moreover, the bioavailability in [5] stood at 13%. Also, the Vd in data set [9] is 61 L/kg; in data set [10], 2 L/kg. The Activity entry in [14] and in [15] was “Dose-Dependent Effect” throughout.
Regarding `COc1cc2c(cc1Nc1nccc(Nc3ccccc3)n1)CN(C)CC2`, the solubility in [13] turned out to be 160 µM (≈ 57.8 µg/mL); in data set [11], 147 µM (≈ 53.1 µg/mL).
In the case of `COc1cc2c(cc1Nc1ncc(C(N)=O)c(NC3CCCC3)n1)CN(C)CC2`, in data set [1], the Papp came to 3.6 ×10⁻⁶ cm/s. In data set [11], this compound gave a solubility of 7 µM (≈ 2.78 µg/mL). In addition, in data set [12], the CLint stood at 28 µL/min/1e6 cells.
Consider `COc1cc2c(cc1Nc1ncc(C(F)(F)F)c(Nc3ccccc3)n1)CN(C)CC2`, for which the solubility was 157 µM (≈ 67.4 µg/mL) in [13] and 96 µM (≈ 41.2 µg/mL) in data set [11].
As for `COc1cc2c(cc1Nc1ncc(C(N)=O)c(Nc3c(C)cccc3F)n1)CN(C)CC2`, the Papp in [1] was found to be 2.78 ×10⁻⁶ cm/s. Moreover, the concentration in solution in [11] (solubility) was 9 µM (≈ 3.93 µg/mL). In addition, in data set [12], the CLint was found to be 69 µL/min/1e6 cells.
For the compound `COc1cc2c(cc1Nc1ncc(C(N)=O)c(Nc3ccccc3)n1)CN(C)CC2`, the Papp in data set [1] amounted to 2.5 ×10⁻⁶ cm/s. Further, the MRT worked out at 72 min in data set [2] and 2.1 h in data set [6]. In addition, the results for the clearance in data set [3] and in [7] were 46 mL/min/kg and 19 mL/min/kg, respectively. For the same compound, the values for the CL free in data set [4] and in [8] were 2532 mL/min/kg and 415 mL/min/kg, respectively. This compound returned a bioavailability in data set [5] of 17%. In addition, the solubility in [13] was 166 µM (≈ 67.1 µg/mL); in data set [11], 92 µM (≈ 37.2 µg/mL). Further, the CLint in [12] stood at 70 µL/min/1e6 cells.
With `COc1cc2c(cc1Nc1ncc(C(N)=O)c(Nc3ccccc3CO)n1)CN(C)CC2`, the Papp in [1] worked out at 0.54 ×10⁻⁶ cm/s. In addition, the MRT in [2] is 39.6 min; in [6], 2 h. Further, the clearance in [3] is 67 mL/min/kg; in [7], 88 mL/min/kg. For the same compound, the CL free in [4] came to 792 mL/min/kg; in data set [8] it was 548 mL/min/kg. This compound also registered a bioavailability in data set [5] of 7.9%. For the same compound, the Vd was determined as 29 L/kg in [9] and 65 L/kg in data set [10]. Besides, the area under the curve (AUC) in data set [16] amounted to 102 µM·h.

The term Papp denotes the rate of passage across a membrane or cell layer, normalised by area and donor concentration. Broadly, the MRT is a mean duration of stay, worked out from the concentration-time curve. The term bioavailability denotes the share of a dose that reaches the circulation, judged against a reference dose that is usually intravenous. Lower therefore signals little systemic uptake. For orientation: solubility means the dissolved amount per volume that the medium holds. Broadly, the AUC is the area under the concentration-time curve, a measure of exposure. Lower therefore signals low exposure.
